The assay concerns the target T1, Methionine aminopeptidase (Escherichia coli (strain K12), UniProt P0AE18).
T1 sequence (P0AE18 whole entry): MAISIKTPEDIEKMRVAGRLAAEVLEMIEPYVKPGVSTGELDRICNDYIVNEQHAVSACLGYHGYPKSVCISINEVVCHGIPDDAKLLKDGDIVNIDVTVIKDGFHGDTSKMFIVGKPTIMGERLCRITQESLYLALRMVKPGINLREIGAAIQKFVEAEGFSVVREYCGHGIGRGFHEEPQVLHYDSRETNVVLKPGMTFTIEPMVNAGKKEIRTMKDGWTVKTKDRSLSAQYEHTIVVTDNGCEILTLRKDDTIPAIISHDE
The experiment in a line: EcMAP Enzyme Inhibition Assay. The conditions noted are these: pH 7.5; 30 °C. The procedure: The inhibitory activity of a compound toward EcMAP was measured by incubating the compound at various concentrations in the presence of the enzyme and the peptide substrate MGMM. Activity can be determined based on the amount of GMM produced or the amount of MGMM consumed. The integrated area of the tripeptide or tetrapeptide peak was compared to a calibration curve generated by running HPLC chromatograms of known concentrations of the polypeptides.

Compound `N=c1nnc(=N)c1=NNc1cccc(C(=O)O)c1O` [3-[(E)-2-(5-amino-3-imino-3H-pyrazol-4-yl)diazen-1-yl]-2-hydroxybenzoic acid] gave an IC50 of 2000 nM. This counts as single-digit micromolar.

In turn, `COc1ccc(NN=c2c(=N)nnc2=N)cc1` [3-imino-4-[(E)-2-(4-methoxyphenyl)diazen-1-yl]-3H-pyrazol-5-amine] had an IC50 of 1500 nM.

`Cc1c(Cl)cccc1NN=c1c(=N)nnc1=N` [4-[(E)-2-(3-chloro-2-methylphenyl)diazen-1-yl]-3-imino-3H-pyrazol-5-amine] had a half-inhibitory concentration (IC50) of 550 nM.

`N=c1nnc(=N)c1=NNc1cccc(F)c1` [4-[(E)-2-(3-fluorophenyl)diazen-1-yl]-3-imino-3H-pyrazol-5-amine] showed an IC50 of 550 nM.

For `N=c1nnc(=N)c1=NNc1ccc(Cl)cc1` [4-[(E)-2-(4-chlorophenyl)diazen-1-yl]-3-imino-3H-pyrazol-5-amine], 1250 nM corresponded to half-maximal inhibition (IC50).

As usually defined, the IC50 is the concentration at which inhibition is half-maximal. Read a low IC50 as higher potency.

For the origin of these results see BindingDB's records for doi:10.1002/prot.21207 (The Procter & Gamble Pharmaceuticals, 2007).
